Source: ChEMBL document CHEMBL3885881, “DrugMatrix”

Species: Rattus norvegicus
Assay: DrugMatrix - Regimen: Daily Repeat
Type: toxicity, organism-based, Sprague-Dawley
Design: regimen Daily Repeat, gender Male, age 6-8 weeks
Settings: in vivo, po, route oral GAVAGE, vehicle .5 % CMC; for ABSOLUTE BASOPHIL / ABSOLUTE EOSINOPHIL / ABSOLUTE LYMPHOCYTE / ABSOLUTE MONOCYTE / ABSOLUTE SEGMENTED NEUTROPHIL / BASOPHIL / EOSINOPHIL / ERYTHROCYTE COUNT / HEMATOCRIT / HEMOGLOBIN / LEUKOCYTE COUNT / LYMPHOCYTE / MEAN CORPUSCULAR HEMOGLOBIN / MEAN CORPUSCULAR HEMOGLOBIN CONCENTRATION / MEAN CORPUSCULAR VOLUME / MONOCYTE / NEUTROPHIL / NUCLEATED RED BLOOD CELLS / PLATELET COUNT: tissue Blood; for ALANINE AMINOTRANSFERASE / ALBUMIN / ALKALINE PHOSPHATASE / ASPARTATE AMINOTRANSFERASE / BLOOD UREA NITROGEN / CARBON DIOXIDE / CHLORIDE / CHOLESTEROL / CREATINE PHOSPHOKINASE / CREATININE / GLUCOSE / LACTATE DEHYDROGENASE / LIPASE / PHOSPHORUS / POTASSIUM / SODIUM / TOTAL BILIRUBIN / TOTAL PROTEIN / URIC ACID: tissue Plasma
[1] = 16 mg/kg, 120 h, dose level Low, time 5 day
[2] = 94 mg/kg, 72 h, dose level High, time 3 day
[3] = 94 mg/kg, 120 h, dose level High, time 5 day

Structure (SMILES): CCOC(=O)OC(C)OC1=C(C(=O)Nc2ccccn2)N(C)S(=O)(=O)c2ccccc21 (centres undefined) [AMPIROXICAM]
- ABSOLUTE BASOPHIL [1]: 0 CELLS/uL
- ABSOLUTE EOSINOPHIL [1]: 0 CELLS/uL
- ABSOLUTE LYMPHOCYTE [1]: 8819 CELLS/uL
- ABSOLUTE MONOCYTE [1]: 212 CELLS/uL
- ABSOLUTE SEGMENTED NEUTROPHIL [1]: 1469 CELLS/uL
- BASOPHIL [1]: 0%
- EOSINOPHIL [1]: 0%
- ERYTHROCYTE COUNT [1]: 5.59 x10E6/uL
- HEMATOCRIT [1]: 33.9%
- HEMOGLOBIN [1]: 12.8 G/DL
- LEUKOCYTE COUNT [1]: 10.5 x10E3/uL
- LYMPHOCYTE [1]: 84%
- MEAN CORPUSCULAR HEMOGLOBIN [1]: 22.9 pg
- MEAN CORPUSCULAR HEMOGLOBIN CONCENTRATION [1]: 37.77 G/DL
- MEAN CORPUSCULAR VOLUME [1]: 60.67 fL
- MONOCYTE [1]: 2.33%
- NEUTROPHIL [1]: 13.67%
- NUCLEATED RED BLOOD CELLS [1]: 0 /100WBC
- PLATELET COUNT [1]: 1100 x10E3/uL
- ALANINE AMINOTRANSFERASE [1]: 50.33 u/L
- ALBUMIN [1]: 4.2 G/DL
- ALKALINE PHOSPHATASE [1]: 430.67 u/L
- ASPARTATE AMINOTRANSFERASE [1]: 70.67 u/L
- BLOOD UREA NITROGEN [1]: 13.67 mg/dL
- CARBON DIOXIDE [1]: 26 mmol/L
- CHLORIDE [1]: 101.67 MEQ/L
- CHOLESTEROL [1]: 67.67 mg/dL
- CREATINE PHOSPHOKINASE [1]: 214.67 u/L
- CREATININE [1]: 0.26 mg/dL
- GLUCOSE [1]: 161.33 mg/dL
- LACTATE DEHYDROGENASE [1]: 71.67 u/L
- LIPASE [1]: 8.67 u/L
- PHOSPHORUS [1]: 11.93 mg/dL
- POTASSIUM [1]: 6.36 MEQ/L
- SODIUM [1]: 144.83 MEQ/L
- TOTAL BILIRUBIN [1]: 0.17 mg/dL
- TOTAL PROTEIN [1]: 6.1 G/DL
- URIC ACID [1]: 1.73 mg/dL
- ABSOLUTE BASOPHIL [2]: 0 CELLS/uL
- ABSOLUTE EOSINOPHIL [2]: 73 CELLS/uL
- ABSOLUTE LYMPHOCYTE [2]: 14276.67 CELLS/uL
- ABSOLUTE MONOCYTE [2]: 831.33 CELLS/uL
- ABSOLUTE SEGMENTED NEUTROPHIL [2]: 1685.67 CELLS/uL
- BASOPHIL [2]: 0%
- EOSINOPHIL [2]: 0.33%
- ERYTHROCYTE COUNT [2]: 4.7 x10E6/uL
- HEMATOCRIT [2]: 28.03%
- HEMOGLOBIN [2]: 11.03 G/DL
- LEUKOCYTE COUNT [2]: 16.87 x10E3/uL
- LYMPHOCYTE [2]: 85.33%
- MEAN CORPUSCULAR HEMOGLOBIN [2]: 23.5 pg
- MEAN CORPUSCULAR HEMOGLOBIN CONCENTRATION [2]: 39.33 G/DL
- MEAN CORPUSCULAR VOLUME [2]: 59.67 fL
- MONOCYTE [2]: 5%
- NEUTROPHIL [2]: 9.33%
- NUCLEATED RED BLOOD CELLS [2]: 0 /100WBC
- PLATELET COUNT [2]: 907 x10E3/uL
- ALANINE AMINOTRANSFERASE [2]: 30 u/L
- ALBUMIN [2]: 2.33 G/DL
- ALKALINE PHOSPHATASE [2]: 163.67 u/L
- ASPARTATE AMINOTRANSFERASE [2]: 53 u/L
- BLOOD UREA NITROGEN [2]: 10 mg/dL
- CARBON DIOXIDE [2]: 27.67 mmol/L
- CHLORIDE [2]: 103.67 MEQ/L
- CHOLESTEROL [2]: 107.67 mg/dL
- CREATINE PHOSPHOKINASE [2]: 224.33 u/L
- CREATININE [2]: 0.21 mg/dL
- GLUCOSE [2]: 142.33 mg/dL
- LACTATE DEHYDROGENASE [2]: 128 u/L
- LIPASE [2]: 11.33 u/L
- PHOSPHORUS [2]: 11.57 mg/dL
- POTASSIUM [2]: 6.23 MEQ/L
- SODIUM [2]: 144.1 MEQ/L
- TOTAL BILIRUBIN [2]: 0.13 mg/dL
- TOTAL PROTEIN [2]: 4.43 G/DL
- URIC ACID [2]: 1.57 mg/dL
- ABSOLUTE BASOPHIL [3]: 0 CELLS/uL
- ABSOLUTE EOSINOPHIL [3]: 0 CELLS/uL
- ABSOLUTE LYMPHOCYTE [3]: 17904 CELLS/uL
- ABSOLUTE MONOCYTE [3]: 540 CELLS/uL
- ABSOLUTE SEGMENTED NEUTROPHIL [3]: 3956 CELLS/uL
- BASOPHIL [3]: 0%
- EOSINOPHIL [3]: 0%
- ERYTHROCYTE COUNT [3]: 3.63 x10E6/uL
- HEMATOCRIT [3]: 21.55%
- HEMOGLOBIN [3]: 8.6 G/DL
- LEUKOCYTE COUNT [3]: 22.4 x10E3/uL
- LYMPHOCYTE [3]: 81%
- MEAN CORPUSCULAR HEMOGLOBIN [3]: 23.8 pg
- MEAN CORPUSCULAR HEMOGLOBIN CONCENTRATION [3]: 40.05 G/DL
- MEAN CORPUSCULAR VOLUME [3]: 59.25 fL
- MONOCYTE [3]: 2.5%
- NEUTROPHIL [3]: 16.5%
- NUCLEATED RED BLOOD CELLS [3]: 2.5 /100WBC
- PLATELET COUNT [3]: 1838 x10E3/uL
- ALANINE AMINOTRANSFERASE [3]: 30 u/L
- ALBUMIN [3]: 2.85 G/DL
- ALKALINE PHOSPHATASE [3]: 259 u/L
- ASPARTATE AMINOTRANSFERASE [3]: 60.5 u/L
- BLOOD UREA NITROGEN [3]: 13 mg/dL
- CARBON DIOXIDE [3]: 23.5 mmol/L
- CHLORIDE [3]: 104 MEQ/L
- CHOLESTEROL [3]: 67 mg/dL
- CREATINE PHOSPHOKINASE [3]: 290 u/L
- CREATININE [3]: 0.21 mg/dL
- GLUCOSE [3]: 136.5 mg/dL
- LACTATE DEHYDROGENASE [3]: 87 u/L
- LIPASE [3]: 9.5 u/L
- PHOSPHORUS [3]: 11.1 mg/dL
- POTASSIUM [3]: 6.99 MEQ/L
- SODIUM [3]: 141.6 MEQ/L
- TOTAL BILIRUBIN [3]: 0.1 mg/dL
- TOTAL PROTEIN [3]: 4.95 G/DL
- URIC ACID [3]: 1.75 mg/dL
